Earlier results, collected in US11324821B2, “Triterpene saponin analogues” (ADJUVANCE TECHNOLOGIES, INC., priority 2017, dated 2022).

Details: cited from earlier work

QS-21
tolerated / maximum dose (cancer patients, above it local erythema and systemic flu-like symptoms): 100 to 150 µg
maximum dose (in vivo): 50 µg
